What all share (assay type): cell-based
Data set [1] has as its system Human Keratinocytes. The experiment in a line: Cell Viability Assay (CCK-8, menadione). Conditions: for cell viability (% vehicle of control): Table 3B. As for the experimental part:
Human Keratinocytes (Promocell, Heidelberg, Germany) were maintained in EpiLife® keratinocyte medium containing 60 uM calcium chloride and 1% Human Keratinocyte Growth Supplement (HKGS). The medium was refreshed every other day. Subsequently, cells were trypsinized at 90% confluency and seeded at a density of 2×10^4 per well into 96-well transparent tissue culture plates. On the second day after seeding, cell medium was replaced with treatments as described above in ROS assay section. After 18 hours, […] (CCK-8) reagent (Dojindo, Kumamoto, Japan) was diluted 1:10 in HBSS and incubated with cells for 4 h at 37° C. in a humidified incubator. Optical absorption at 450 nm was measured using a Tecan Safire2 plate reader. Relative viability was calculated with normalization based on the vehicle control treatment, which was set to 100%.
Where indicated, percent protection was calculated as a comparison to menadione alone treatment, using the measured relative absorbance units in the following equation: […]

The next data set concerns Aged Human Keratinocytes. The experiment in a line: Glutathione Assay (total glutathione, GSH-GSSG Glo, menadione challenge). To be noted: for synergistic increase in GSH synthesis, combination with GAP amino acids vs either alone: resorcinol/test reagent combined with GAP, + menadione. On the procedure:
Aged Human Keratinocytes (Cascade Biologics, now ThermoFisher Scientific, Waltham, Mass.) were maintained in Epi Life® medium containing 60 uM calcium chloride and 1% Human Keratinocyte Growth Supplement (both media components from ThermoFisher Scientific) in a humidified incubator with an atmosphere containing 5% CO2 at 37° C. The medium was refreshed every 2-3 days. Subsequently, cells were trypsinized at 90% confluency and seeded at a density of 1×10^4 per well into 96-well plates with white wall and clear bottom. One or two days after seeding, cell medium was replaced with Hank's Balanced Salt Solution (HBSS), and keratinocytes were pre-treated with GAP (or 0.12-0.240 mM sodium hydroxide vehicle control, pH 7.5) alone or in combination with additional test reagents described above or L-cystine esters alone for 1-2 hours. The concentration of all amino acids constituting the GAP mixture used in this assay are designated in the data tables, and fully described in the abbreviations list below.
After one or two hours of pre-treatment with GAP or additional test reagents, alone or in combination, keratinocytes were then challenged with 25 uM menadione (Sigma-Aldrich), a known inducer of oxidative stress. After 18-20 hours, cells were harvested and analyzed for total glutathione levels using a commercially available kit (GSH-GSSG GLo Assay, Promega), a luminescence-based system for the detection and quantification of total glutathione in cultured cells. In summary, after cell treatment, the media was removed and replaced with a cell lysis reagent for 5 minutes at 20-25° C.; note, all remaining steps were also conducted at 20-25° C. Next, a luciferase generation reagent was added to each well and incubated for 30 minutes. Following this step, a luciferin detection reagent was added to each well and plates were incubated for 15 minutes. Finally, plates were then read for luminescence in a FlexStation 3 plate reader (Molecular Devices). Total glutathione levels were calculated after interpolation of glutathione concentrations from a standard curve. Experimental conditions were typically conducted in at least triplicate determinations. Statistical significance was calculated using 1-way ANOVA. Percent protection was calculated by using the calculated glutathione levels from each experiment in the following equation: […]

The test system of data set [2] is Human Keratinocytes. The experiment in a line: Reactive Oxygen Species (ROS) Assay (CellROX green, menadione). To be noted: for synergistic decrease in ROS production, combination with GAP amino acids vs either alone: resorcinol/test reagent combined with GAP. As for the experimental part:
Human Keratinocytes (Promocell, Heidelberg, Germany) were maintained in EpiLife® keratinocyte medium containing 60 uM calcium chloride and 1% Human Keratinocyte Growth Supplement (HKGS) in a humidified incubator with an atmosphere containing 5% CO2 at 37° C. The medium was refreshed every other day. Subsequently, cells were trypsinized at 90% confluency and seeded at a density of 1-2×10^4 per well into 96-well plates with black wall and clear bottom. On the second day after seeding, cell medium was replaced with Hank's Balanced Salt Solution (HBSS) with or without menadione (10-25 uM), GAP (typically at 49 uM pyroglutamic acid, 60 uM cystine, 194 uM glycine), GAP vehicle (0.2 mM NaOH, pH 7.5), above-described additional test reagents, or combinations of GAP with additional test reagents or L-cystine esters alone, and incubated for additional 18 hours. For ROS detection, CellROX green (Life Tech, Thermo Fisher Scientific, Rockford, USA) reagent was added into each well to a final concentration of 15-25 uM and incubated for additional 2-4 hours at 37° C. in a humidified incubator. The ROS fluorescence was detected using a Tecan microplate reader (Excitation/Emission=490/525). Relative ROS production was calculated with normalization based on the vehicle control treatment which was set to 100%. Where indicated, percent protection was calculated as a comparison to menadione alone treatment, using the measured relative fluorescent units in the following equation: […]
ROS levels were evaluated together with cell viability because it is possible to get a false negative for ROS if treatment is so toxic, that at the time of assay, cells are dead (and there are no longer any detectable ROS). Decrease in ROS levels is meaningful if cells are still viable.

Where [3] appears, read: Table 3A, Olivetol or 3-hydroxytyrosol 10 uM + menadione.
The mark [4] stands for this setting: Table 3A, Olivetol or 3-hydroxytyrosol 20 uM + menadione.
Setting [5] is: Table 3A, Olivetol or 3-hydroxytyrosol 50 uM + menadione.
The mark [6] stands for this setting: Table 2E, BR 20 uM where present, + menadione.
Where [7] appears, read: Table 1B, BR 50 uM where present, + menadione 25 uM.
Where [8] appears, read: Table 2B, resorcinol (BR or IPR) 10 uM + menadione.
[9] abbreviates: Table 2B, resorcinol (BR or IPR) 50 uM + menadione.
Where [10] appears, read: Table 2B, resorcinol (BR or IPR) 100 uM + menadione.
The mark [11] stands for this setting: Table 1H, CDME 20 uM + menadione.
[12] abbreviates: Table 1H, CDME 40 uM + menadione.
The mark [13] stands for this setting: Table 1H, CDME 80 uM + menadione.
Setting [14] is: Table 1H, CDME 160 uM + menadione.
[15] abbreviates: Table 1F, DTBC 20 uM + menadione.
Where [16] appears, read: Table 3C, MR 10 uM where present, + menadione.
[17] abbreviates: Table 3D, 4-CHMR 10 uM + menadione.
Where [18] appears, read: Table 3D, 4-CHMR 20 uM + menadione.
Setting [19] is: Table 3D, 4-CHMR 50 uM + menadione.

Consider `OCCc1ccc(O)c(O)c1` [3-hydroxytyrosol], for which the figures for the “cell viability (% vehicle of control)” value in the data set on Human Keratinocytes [1] (3-hydroxytyrosol 10 uM + menadione) and in the data set with Human Keratinocytes [1] (3-hydroxytyrosol 20 uM + menadione) were 16.8% and 16.5%, respectively. The “% Protection (improvement vs vehicle control + menadione)” value in the data set with Aged Human Keratinocytes (setting [3]) was −3%; in the data set with Aged Human Keratinocytes (setting [4]), −5%; in the data set with Aged Human Keratinocytes (setting [5]) it was −4%. The “Glutathione Synthesis, Mean (uM glutathione)” value (“Glutathione Synthesis, Mean” for short) stood at 0.07 µM with Aged Human Keratinocytes (setting [3]), 0.03 µM in the data set with Aged Human Keratinocytes (setting [4]) and 0.04 µM in the data set with Aged Human Keratinocytes (setting [5]). In the data set on Aged Human Keratinocytes, the “synergistic increase in GSH synthesis, combination with GAP amino acids vs either alone” value (from here on “synergistic increase in GSH synthesis”) was “no synergistic effect”. The “ROS production (% of vehicle control)” value in the data set on Human Keratinocytes [2] (Table 3B, 3-hydroxytyrosol 10 uM + menadione) is given as 241.6%; in the data set on Human Keratinocytes [2] (Table 3B, 3-hydroxytyrosol 20 uM + menadione), 229.9^1%. In addition, in the data set with Human Keratinocytes [2] (+ menadione), the “synergistic decrease in ROS production, combination with GAP amino acids vs either alone” value (“synergistic decrease in ROS production” below) was “no synergistic effect”.

As for `CCCCc1ccc(O)cc1O` [BR, 4-butylresorcinol], the “% Protection (improvement vs vehicle control + menadione), cell viability” value in the data set on Human Keratinocytes [1] (setting [6]) was 11.75^3%. The “Cell viability (% of control)” value with Human Keratinocytes [1] (setting [6]) is reported as 74.1^3%. The “% Protection (improvement vs. vehicle control + menadione)” value in the data set on Aged Human Keratinocytes (setting [7]) is given as −1^1%; in the data set with Aged Human Keratinocytes (setting [8]), 5%; with Aged Human Keratinocytes (setting [9]) it was 3%; in the data set with Aged Human Keratinocytes (setting [10]), 6%. Moreover, the “Glutathione Synthesis, Mean” value with Aged Human Keratinocytes (setting [7]) is 0.06^1 uM; with Aged Human Keratinocytes (setting [8]), 0.10 µM; in the data set on Aged Human Keratinocytes (setting [9]), 0.07 µM; with Aged Human Keratinocytes (setting [10]), 0.13 µM. The “synergistic increase in GSH synthesis” value in the data set on Aged Human Keratinocytes is on record as “synergistic increase”. Moreover, in the data set with Human Keratinocytes [2] (setting [6]), the “% protection (improvement vs vehicle control + menadione), ROS” value came out at 0.95%. In the data set on Human Keratinocytes [2] (setting [6]), the “Mean ROS production (% of vehicle control)” value was found to be 220.7%. Also, the “synergistic decrease in ROS production” value in the data set with Human Keratinocytes [2] (+ menadione) is on record as “synergistic decrease”.

As to `COC(=O)[C@@H](N)CSSC[C@H](N)C(=O)OC.Cl.Cl` [CDME, L-Cystine dimethyl ester dihydrochloride], the “% protection (improvement vs. vehicle control + menadione), cell viability” value with Human Keratinocytes [1] (setting [11]) is reported as 30.2^1,2%; in the data set with Human Keratinocytes [1] (setting [12]), 33.4^1,2%; with Human Keratinocytes [1] (setting [13]), 24.6^1,2%; in the data set with Human Keratinocytes [1] (setting [14]), 51.7^1,2%. Besides, the “Cell viability (% of vehicle control)” value was 90.9^1,2% in the data set with Human Keratinocytes [1] (setting [11]), 93.1^1,2% in the data set on Human Keratinocytes [1] (setting [12]), 87.0^1,2% in the data set on Human Keratinocytes [1] (setting [13]) and 105.9^1,2% in the data set on Human Keratinocytes [1] (setting [14]). The “% Protection (improvement vs. vehicle control + menadione), ROS” value is 18.2^2% in the data set with Human Keratinocytes [2] (setting [11]), 15.5^1,2% in the data set on Human Keratinocytes [2] (setting [12]), 13.3^1,2% in the data set with Human Keratinocytes [2] (setting [13]) and 25.7^2% in the data set with Human Keratinocytes [2] (setting [14]). In addition, the “ROS production (% of vehicle control)” value in the data set with Human Keratinocytes [2] (setting [11]) is recorded as 107.8^2%; in the data set with Human Keratinocytes [2] (setting [12]), 111.3^1,2%; in the data set on Human Keratinocytes [2] (setting [13]), 114.3^1,2%; in the data set with Human Keratinocytes [2] (setting [14]) it was 97.9^2%.

Turning to `CCOC(=O)[C@@H](N)CSSC[C@H](N)C(=O)OCC.Cl.Cl` [DEC, Diethyl L-cystinate dihydrochloride], in the data set with Human Keratinocytes [2] (Table 1D, DEC 20 uM + menadione), the “% Protection (improvement vs. vehicle control + menadione), ROS” value was 38.0^1,2%.

As for `CC(C)(C)OC(=O)[C@@H](N)CSSC[C@H](N)C(=O)OC(C)(C)C.Cl.Cl` [DTBC, Ditert-butyl L-cystinate dihydrochloride], the “% protection (improvement vs. vehicle control + menadione), cell viability” value was 6.0^1% in the data set with Human Keratinocytes [1] (setting [15]); 3.0^1% in the data set on Human Keratinocytes [1] (Table 1F, DTBC 40 uM + menadione); −0.1^1% in the data set on Human Keratinocytes [1] (Table 1F, DTBC 80 uM + menadione). For the same molecule, in the data set with Human Keratinocytes [2] (setting [15]), the “% Protection (improvement vs. vehicle control + menadione), ROS” value is given as 2.2%.

`CC(C)c1ccc(O)cc1O` [IPR, 4-isopropylresorcinol]: the figures for the “% Protection (improvement vs. vehicle control + menadione)” value in the data set with Aged Human Keratinocytes (setting [8]), in the data set on Aged Human Keratinocytes (setting [9]) and in the data set on Aged Human Keratinocytes (setting [10]) were 6%, 6% and 8%, respectively. Moreover, the “Glutathione Synthesis, Mean” value with Aged Human Keratinocytes (setting [8]) was 0.12 µM; in the data set with Aged Human Keratinocytes (setting [9]), 0.12 µM; with Aged Human Keratinocytes (setting [10]), 0.16 µM. Moreover, the “synergistic increase in GSH synthesis” value in the data set on Aged Human Keratinocytes is “synergistic increase”.

As for `Cc1ccc(O)cc1O` [MR, 4-methylresorcinol], the “Cell viability (% of vehicle control)” value in the data set with Human Keratinocytes [1] (setting [16]) is 45.3%. Moreover, the “Mean ROS production (% of vehicle control)” value with Human Keratinocytes [2] (setting [16]) was 233.5^1%. In addition, the “synergistic decrease in ROS production” value with Human Keratinocytes [2] (+ menadione) is reported as “did not result”.

Regarding `CCCCCc1cc(O)cc(O)c1` [Olivetol, 5-pentylresorcinol], the “% Protection (improvement vs vehicle control + menadione)” value is given as −1% in the data set on Aged Human Keratinocytes (setting [3]), −1% in the data set on Aged Human Keratinocytes (setting [4]) and −2% in the data set with Aged Human Keratinocytes (setting [5]). The “Glutathione Synthesis, Mean” value is 0.14 µM in the data set with Aged Human Keratinocytes (setting [3]), 0.13 µM in the data set with Aged Human Keratinocytes (setting [4]) and 0.11 µM in the data set on Aged Human Keratinocytes (setting [5]). Besides, the “synergistic increase in GSH synthesis” value with Aged Human Keratinocytes is on record as “did not result”.

`Oc1ccc(CC2CCCCC2)c(O)c1` [Sample 4-CHMR, 4-(cyclohexylmethyl)resorcinol]: the figures for the “% Protection” value in the data set on Aged Human Keratinocytes (setting [17]), in the data set on Aged Human Keratinocytes (setting [18]) and in the data set with Aged Human Keratinocytes (setting [19]) were −4.6%, −6.2% and −1.7%, respectively. Also, the “Glutathione Synthesis, Mean” value with Aged Human Keratinocytes (setting [17]) stood at 0.07 µM; with Aged Human Keratinocytes (setting [18]), 0.026 µM; in the data set on Aged Human Keratinocytes (setting [19]), 0.147 µM. Also, in the data set with Aged Human Keratinocytes, the “synergistic increase in GSH synthesis” value is “did not result”.

The values above are taken from US11759412B2, “Personal care compositions with glutathione precursor comprising 4-substituted resorcinols and amino acids” (Conopco, Inc., priority 2016, dated 2023).
